Measurements from US20190002492A1, “DERIVATIVES OF ALLOPR[…] OF EPIALLOPR[…] USES THEREOF FOR TREATING A NEUROPATHOLOGICAL CONDITION” (UNIVERSITE DE STRASBOURG, priority 2011, published 2019).

Key:
[1] = test system: SH-SY5Y human neuroblastomas; assay: MTT assay of cell viability and density: effect on cell proliferation; type: cell-based; design: key to Effect on cell proliferation (neural proliferative effect): −: no effect; +: low effect; ++: high effect; +++: very high effect; details: SH-SY5Y cultures
Experimental: The cellular model used to carry out the in vitro experiments is a line of human neuroblastomas called line SH-SY5Y.
The human neuroblastoma is a cultivated at 37° C. in a humidity saturated atmosphere, under 5% CO2 in a culture medium formed by DMEM with an added 10% (v/v) fetal calf serum, 5% (v/v) horse serum, 2 mM glutamax and 1% (v/v) of the penicillin/streptomycin mixture.
The cellular viability and the density (or number of SH-SY5Y cells/cm^2) were determined using the MTT reduction assay. The MTT technique is a colorimetric test that measures the reduction of the tetrazolium salt (3-[4,5-dimethylthiazol-2-yl]-2,5-diphenyl tetrazolium bromide) in formazan by the succinate dehydrogenase present in the mitochondria of the living cells. The formazan forms blue crystals. Thus, after solubilization of the crystals, the measurement of the absorbance at 595 nm makes it possible to obtain absorbency values directly proportional to the number of viable cells and the cell density in the culture boxes.
The effects of derivatives BR053, BR338, BR297 and BR351 on cell proliferation were evaluated by comparing the number of viable cells and the cell density in the control culture boxes, treated only with the culture medium described in paragraph A1 above, and the culture boxes exposed to the culture medium with the added BR053, BR338, BR297 or BR351 derivatives.

Sprague-Dawley rats [2] = assay: Von Frey mechanical nociceptive sensitivity threshold in healthy animals not treated with vincristine; type: in vivo, rat; details: 4 mg/kg every 2 days for 2 weeks
From the text: (§1) Adult male Sprague-Dawley rats weighing between 250 and 300 g were used. They came from the company Janvier (le Genest St. Isle, France). The care and handling of the animals were done in accordance with the guidelines from the Council of the European Community (86/609/EC) and in accordance with the ethical rules of the International Association for the Study of Pain. The protocol used to carry out the in vivo studies was subject to examination and authorization granted to Prof. Mensah-Nyagan's team by the Alsatian Department of the Veterinary Public Health Guide for the Care and Use of Laboratory Animals (Approval number 67-186). The rats were housed under standard conditions with a photoperiod of 12 h day/12 h night, with unlimited food and water. The animals spent one acclimatization week before being integrated into the experimental protocols. Each animal was examined daily to detect any signs of deterioration of its health condition, such as dramatic weight loss, a decrease in appetite during chemotherapy and pharmacological treatment.
(§2) The allopregnanolone in the derivatives according to the invention (BR053 and BR297) were diluted in a hydroxypropylcellulose (HPC) solution (0.3%) used as excipient. The curative treatment with allopregnanolone, BR053 or BR297 began 3 days after the vincristine cycles. Each of these compounds (allopregnanolone, BR053 or BR297) was administered by the intraperitoneal route at a dose of 4 mg/kg at a rate of one injection every 2 days. Thus, over the total duration of the in vivo experiments (14 days), each animal received 7 injections of excipient, allopregnanolone, BR053 or BR297, based on its group, at a dose of 4 mg/kg. The animals were sacrificed 24 hours after the last behavioral test (28th day) to remove tissues that will be used for later histology and electrophysiology studies.
The mechanical nociceptive sensitivity threshold was evaluated in rats placed in individual Plexiglas boxes (30×30×25 cm) mounted on a raised mesh support thereby allowing access to the surface or arch of the back feet. The presence of allodynia (exaggerated response following a normally […] stimulation) was measured using a series of calibrated von Frey filaments (1, 2, 4, 6, 8, 10, 15, 26, 100, 180 and 300 g; Stoelting, Wood Dale, Ill., USA), which were applied on the sole of the back foot of the animal with increasing force until the filament twisted. The filament was applied for a period of 1 to 2 seconds and the procedure was repeated 5 times at 4-5 second intervals. The withdrawal threshold of the foot was calculated by taking the average of 10 repeated stimuli (in grams) that caused a reflex to withdraw the foot. Only vigorous and fast withdrawals of the foot were considered positive. […]

[3] = test system: human neuroblastoma cells; assay: Whole-cell patch-clamp without GABA in the recording pipette (non-GABAergic effects); type: cell-based; details: GABA not added in the recording pipette
From the text: The present Invention relates to derivatives of allopregnanolone or of epipregnanolone that primarily and clearly create a cellular effect that is completely independent of the GABAa receptors. In fact, electrophysiological experiments conducted on human neuroblastoma cells using a Patch-Clamp technique, in a Patch-Clamp whole cell configuration, made it possible to see that when the GABA is not in the pipette, i.e., not introduced, or when the GABAa receptors are not activated, said derivatives were capable of inducing a specific cellular activity.
These experiments were carried out under the same recording conditions as the electrophysiological studies described above (A5), with the exception of the GABA, which was not added into the recording pipette.

Sprague-Dawley rats [4] = assay: Von Frey filament test, painful neuropathy caused by vincristine; type: in vivo, rat; details: rats with vincristine neuropathy, 4 mg/kg i.p. every 2 days for 2 weeks
From the text: as §1
Vincristine sulfate (VINC), purchased from Sigma-Aldrich (St. Louis, Mo., USA), was dissolved in a physiological saline solution (NaCl 0.9%) at 0.1 mg/ml and stored at 4° C. The saline solution (NaCl 0.9%) is used as excipient. The VINC is injected daily by intraperitoneal injection (i.p.), in 2 cycles of 5 days separated by 2 days off, at a concentration of 0.1 mg/kg/day. The control animals were injected by i.p. (1 ml/kg) with the excipient using a similar protocol.
as §2
The mechanical nociceptive sensitivity threshold was evaluated in rats placed in individual Plexiglas boxes (30×30×25 cm) mounted on a raised mesh support thereby allowing access to the surface or arch of the back feet. The presence of allodynia (exaggerated response following a normally […] stimulation) was measured using a series of calibrated von Frey filaments (1, 2, 4, 6, 8, 10, 15, 26, 100, 180 and 300 g; Stoelting, Wood Dale, Ill., USA), which were applied on the sole of the back foot of the animal with increasing force until the filament twisted. The filament was applied for a period of 1 to 2 seconds and the procedure was repeated 5 times at 4-5 second intervals. The withdrawal threshold of the foot was calculated by taking the average of […] repeated stimuli (in grams) that caused a reflex to withdraw the foot. Only vigorous and fast withdrawals of the foot were considered positive. In the experiments, the naïve animals never responded to the 4 g filament and responded 25-30% of the time to the 15 g filament.

## C=CCO[C@H]1CC[C@]2(C)C3CC[C@@]4(C)C(CC[C@@H]4C(C)=O)C3CC[C@H]2C1 (stereo partly shown) [BR297]
[1]
  Effect on cell proliferation (neural proliferative effect): −
  Effect on the proliferation of human neuroblastomas (in words): no effect
Sprague-Dawley rats [2]
  Anti-nociceptive effect in healthy animals: does not cause any anti-nociceptive effect
[3]
  Induction of cellular activity without GABA (non-GABAergic effect): capable of inducing cellular activity
Sprague-Dawley rats [4]
  Effect on mechanical allodynia and mechanical hyperalgesia: eliminates the symptoms

## CC(=O)[C@H]1CCC2C3CC[C@H]4C[C@@H](O)CC[C@]4(C)C3CC(=O)[C@@]21C (stereo partly shown) [BR053]
[1]
  Effect on cell proliferation (neural proliferative effect): +
  Effect on the proliferation of human neuroblastomas (in words): low effectiveness
Sprague-Dawley rats [2]
  Anti-nociceptive effect in healthy animals: does not cause any anti-nociceptive effect
[3]
  Induction of cellular activity without GABA (non-GABAergic effect): capable of inducing cellular activity
Sprague-Dawley rats [4]
  Effect on mechanical allodynia and mechanical hyperalgesia: eliminates the symptoms
